The text below walks through data of article PMC4657912, “Purification and Characterization of a Novel NAD(P)^+-Farnesol Dehydrogenase from Polygonum minus Leaves” (PLoS ONE, 2015).

Each structure is given as a SMILES string.

Assay [1] relates to T1, P. minus farnesol dehydrogenase; NAD(P)+-dependent farnesol dehydrogenase.
T1 construct: native, purified from leaves; gene not cloned
Nature of the assay: NADH formation at […] nm, Lineweaver-Burk. It counts as biochemical, Persicaria minor. The note with it: 100 mM glycine-NaOH pH 9.5, 35 C, read-out: K m value.

For assay [2] the test system is unchanged. As to the kind of experiment: NADPH formation at […] nm, Lineweaver-Burk. It counts as biochemical, Persicaria minor. To be noted: 1.0 mM trans,trans-farnesol (standard assay), 100 mM glycine-NaOH pH 9.5, 35 C; substrate range stated 0.5-1.5 mM, extrapolated; read-out: K m value.
Where [3] appears, read: 1.0 mM NAD+ (standard assay), oxidation.

For `CC(C)=CCC/C(C)=C/CC/C(C)=C\CO` [Cis, trans-farnesol], the Km in assay [1] (setting [3]) was 330 µM.

Regarding `CC(C)=CCC/C(C)=C\CC/C(C)=C\CO` [Cis, cis-farnesol], the Km in assay [1] (setting [3]) came out at 420 µM.

For `CC(C)=CCC/C(C)=C/CO` [Geraniol, (trans)-3,7-dimethyl-2,6-octadien-1-ol], the Km in assay [1] (1.0 mM NAD+ (standard assay), oxidation, substrate range 0.5-1.5 mM, extrapolated) is 12500 µM.

In the case of `CC(C)=CCC/C(C)=C/CC/C(C)=C/CO` [Trans, trans-farnesol, trans,trans-3,7,11-trimethyl-2,6,10-dodecatrien-1-ol], the Km in assay [1] (setting [3]) worked out at 170 µM.

Consider `OC/C=C/c1ccccc1` [Cinnamyl alcohol], for which the Km in assay [1] (setting [3]) was 1040 µM.

For `C=CC(C)(O)CCC=C(C)CCC=C(C)C` (stereo not shown) [nerolidol], in assay [1] (setting [3]), the Km worked out at 1000 µM.

With `C=C(C)[C@@H]1CC=C(CO)CC1` [(S)-Perillyl alcohol], in assay [1] (setting [3]), the Km is 770 µM.

`NC(=O)c1ccc[n+]([C@@H]2O[C@H](COP(=O)(O)OP(=O)(O)OC[C@H]3O[C@@H](n4cnc5c(N)ncnc54)[C@H](OP(=O)(O)O)[C@@H]3O)[C@@H](O)[C@H]2O)c1` [NADP^+]: in assay [2], the Km is 40000 µM.

Turning to `NC(=O)c1ccc[n+]([C@@H]2O[C@H](COP(=O)(O)OP(=O)(O)OC[C@H]3O[C@@H](n4cnc5c(N)ncnc54)[C@H](O)[C@@H]3O)[C@@H](O)[C@H]2O)c1` [NAD^+], the Km in assay [1] (1.0 mM trans,trans-farnesol (standard assay)) was 740 µM.

Turning to `C=C(C)C1CC=C(C)C(O)C1` (stereo not shown) [Carveol], in assay [1] (setting [3]), the Km came to 710 µM.
